{"source": "patent US8901037B2", "about": "“Composition having a germination-preventing activity, processes for obtaining said compositions and use thereof” (Isagro S.p.A., priority 2006, dated 2014)", "key": {"[1]": {"system": "weeds", "assay": "germination-preventing action in treated soil", "type": "in vivo", "conditions": "minimum amounts of 4 g per square meter of soil"}, "[2]": {"conditions": "cited from earlier work"}}, "data": [{"smiles": "C=CCN=C=S", "note": "[allyl isothiocyanate, Allyl isothiocyanate]", "values": [{"measurement": "germination-preventing action", "setting": "[1]", "value": "marked germination-preventing action"}, {"measurement": "vapour pressure at 25° C.", "setting": "[2]", "value": 5, "unit": "mmHg"}]}, {"smiles": "CN=C=S", "note": "[methyl isothiocyanate, reference compound]", "values": [{"measurement": "vapour pressure at 25° C.", "setting": "[2]", "value": 19, "unit": "mmHg"}]}]}
